Test results from paper PMC7525662, “Preclinical dosimetry models and the prediction of clinical doses of novel positron emission tomography radiotracers” (Scientific Reports, 2020).
Marks after values point to notes of the source that are not given here.

Legend:
Set-up in all cases: species or system Sprague–Dawley rats
Conditions in all cases: rat, in vivo
[1] = OLINDA/EXM predicted clinical doses: adult male phantom, non-normalised τ, FBP
Description: (§1) PET studies were reconstructed using filtered-back projection (FBP) and Mediso’s iterative Tera-Tomo 3D reconstruction algorithm with the following settings: 4 iterations, 6 subsets, full detector model, normal regularization, spike filter on, voxel size 0.4 mm and 400‒600 keV energy window. PET data were corrected for randoms, scatter and attenuation. Time-activity curves for each source organ, whole-body and remainder of the body were plotted. […] Residence times (τ) were determined for each radiotracer in source organs, whole-body and remaining (any activity assigned to the whole-body but not assigned to a source organ). Each preclinical source organ’s τ was determined by calculating the area under its respective time-activity curve (activity normalised to the percentage maximum injected dose as a function of time) using the trapezoid method. […] From each individual animal, eight dosimetry models were constructed from all possible combinations of image reconstruction method (FBP or iterative), τ (non-normalised or normalised to human organ masses), and sex of phantom (male or female).

[2] = OLINDA/EXM predicted clinical doses: adult male phantom, non-normalised τ, iterative
Description: as §1

[3] = OLINDA/EXM predicted clinical doses: adult female phantom, normalised τ, FBP
Description: as §1, with “female). Supplementary table 8. Predicted clinical absorbed organ doses and whole-body effective doses of PET radiotracers using normalised adult female source organ residence times from filtered backprojection reconstructions.” for “female).”

[4] = OLINDA/EXM predicted clinical doses: adult female phantom, non-normalised τ, iterative
Description: as §1, with “female). Supplementary table 10. Predicted clinical absorbed organ doses and whole-body effective doses of PET radiotracers using non-normalised (preclinical) adult female source organ residence times from iterative reconstructions.” for “female).”

Compound: O=C[C@H]([18F])[C@@H](O)[C@H](O)[C@H](O)CO [FDG, 2-deoxy-2-[^18F]fluoro-D-glucose]
- Effective Dose (mSv/MBq), Average [1]: 5.79E-02 mSv/MBq
- Estimated Absorbed Dose of Organ, Average: Adrenals [1]: 1.22E-02 mGy/MBq
- Estimated Absorbed Dose of Organ, Average: Brain [1]: 4.36E-03 mGy/MBq
- Estimated Absorbed Dose of Organ, Average: Breasts [1]: 8.62E-03 mGy/MBq
- Estimated Absorbed Dose of Organ, Average: Gallbladder Wall [1]: 1.32E-02 mGy/MBq
- Estimated Absorbed Dose of Organ, Average: Heart Wall [1]: 1.51E-02 mGy/MBq
- Estimated Absorbed Dose of Organ, Average: Kidneys [1]: 2.01E-02§ mGy/MBq
- Estimated Absorbed Dose of Organ, Average: LLI Wall [1]: 2.39E-01† mGy/MBq
- Estimated Absorbed Dose of Organ, Average: Liver [1]: 8.09E-03 mGy/MBq
- Estimated Absorbed Dose of Organ, Average: Lungs [1]: 8.07E-03 mGy/MBq
- Estimated Absorbed Dose of Organ, Average: Muscle [1]: 1.35E-02 mGy/MBq
- Estimated Absorbed Dose of Organ, Average: Osteogenic Cells [1]: 1.76E-02 mGy/MBq
- Estimated Absorbed Dose of Organ, Average: Pancreas [1]: 1.32E-02 mGy/MBq
- Estimated Absorbed Dose of Organ, Average: Red Marrow [1]: 1.32E-02 mGy/MBq
- Estimated Absorbed Dose of Organ, Average: Skin [1]: 9.20E-03 mGy/MBq
- Estimated Absorbed Dose of Organ, Average: Small Intestine [1]: 2.21E-02 mGy/MBq
- Estimated Absorbed Dose of Organ, Average: Spleen [1]: 1.23E-02 mGy/MBq
- Estimated Absorbed Dose of Organ, Average: Stomach Wall [1]: 1.34E-02 mGy/MBq
- Estimated Absorbed Dose of Organ, Average: Testes [1]: 1.76E-02 mGy/MBq
- Estimated Absorbed Dose of Organ, Average: Thymus [1]: 1.07E-02 mGy/MBq
- Estimated Absorbed Dose of Organ, Average: Thyroid [1]: 1.05E-02 mGy/MBq
- Estimated Absorbed Dose of Organ, Average: Total Body [1]: 1.38E-02 mGy/MBq
- Estimated Absorbed Dose of Organ, Average: ULI Wall [1]: 1.76E-02 mGy/MBq
- Estimated Absorbed Dose of Organ, Average: Urinary Bladder Wall [1]: 3.23E-01‡ mGy/MBq
- Effective Dose (mSv/MBq), Average ± SD [2]: 6.24E-02 mSv/MBq
- Estimated Absorbed Dose of Organ, Average ± SD: Adrenals [2]: 9.39E-03 mGy/MBq
- Estimated Absorbed Dose of Organ, Average ± SD: Brain [2]: 5.73E-03 mGy/MBq
- Estimated Absorbed Dose of Organ, Average ± SD: Breasts [2]: 5.93E-03 mGy/MBq
- Estimated Absorbed Dose of Organ, Average ± SD: Gallbladder Wall [2]: 1.04E-02 mGy/MBq
- Estimated Absorbed Dose of Organ, Average ± SD: Heart Wall [2]: 2.60E-02 mGy/MBq
- Estimated Absorbed Dose of Organ, Average ± SD: Kidneys [2]: 3.58E-02 § mGy/MBq
- Estimated Absorbed Dose of Organ, Average ± SD: LLI Wall [2]: 1.92E-01 ‡ mGy/MBq
- Estimated Absorbed Dose of Organ, Average ± SD: Liver [2]: 9.19E-03 mGy/MBq
- Estimated Absorbed Dose of Organ, Average ± SD: Lungs [2]: 6.86E-03 mGy/MBq
- Estimated Absorbed Dose of Organ, Average ± SD: Muscle [2]: 1.15E-02 mGy/MBq
- Estimated Absorbed Dose of Organ, Average ± SD: Osteogenic Cells [2]: 1.26E-02 mGy/MBq
- Estimated Absorbed Dose of Organ, Average ± SD: Pancreas [2]: 9.88E-03 mGy/MBq
- Estimated Absorbed Dose of Organ, Average ± SD: Red Marrow [2]: 1.08E-02 mGy/MBq
- Estimated Absorbed Dose of Organ, Average ± SD: Skin [2]: 6.97E-03 mGy/MBq
- Estimated Absorbed Dose of Organ, Average ± SD: Small Intestine [2]: 1.91E-02 mGy/MBq
- Estimated Absorbed Dose of Organ, Average ± SD: Spleen [2]: 9.14E-03 mGy/MBq
- Estimated Absorbed Dose of Organ, Average ± SD: Stomach Wall [2]: 9.73E-03 mGy/MBq
- Estimated Absorbed Dose of Organ, Average ± SD: Testes [2]: 1.82E-02 mGy/MBq
- Estimated Absorbed Dose of Organ, Average ± SD: Thymus [2]: 7.56E-03 mGy/MBq
- Estimated Absorbed Dose of Organ, Average ± SD: Thyroid [2]: 6.91E-03 mGy/MBq
- Estimated Absorbed Dose of Organ, Average ± SD: Total Body [2]: 1.19E-02 mGy/MBq
- Estimated Absorbed Dose of Organ, Average ± SD: ULI Wall [2]: 1.49E-02 mGy/MBq
- Estimated Absorbed Dose of Organ, Average ± SD: Urinary Bladder Wall [2]: 5.53E-01 † mGy/MBq
- Effective Dose (mSv/MBq), Average ± SD [3]: 3.21E-02 mSv/MBq
- Estimated Absorbed Dose of Organ, Average: Adrenals [3]: 1.55E-02 mGy/MBq
- Estimated Absorbed Dose of Organ, Average: Brain [3]: 1.10E-02 mGy/MBq
- Estimated Absorbed Dose of Organ, Average: Breasts [3]: 1.16E-02 mGy/MBq
- Estimated Absorbed Dose of Organ, Average: Gallbladder Wall [3]: 1.48E-02 mGy/MBq
- Estimated Absorbed Dose of Organ, Average: Heart Wall [3]: 4.52E-02 mGy/MBq
- Estimated Absorbed Dose of Organ, Average: Kidneys [3]: 1.70E-02 § mGy/MBq
- Estimated Absorbed Dose of Organ, Average: LLI Wall [3]: 1.07E-01 † mGy/MBq
- Estimated Absorbed Dose of Organ, Average: Liver [3]: 1.01E-02 mGy/MBq
- Estimated Absorbed Dose of Organ, Average: Lungs [3]: 1.82E-02 mGy/MBq
- Estimated Absorbed Dose of Organ, Average: Muscle [3]: 1.40E-02 mGy/MBq
- Estimated Absorbed Dose of Organ, Average: Osteogenic Cells [3]: 2.19E-02 mGy/MBq
- Estimated Absorbed Dose of Organ, Average: Ovaries [3]: 2.42E-02 mGy/MBq
- Estimated Absorbed Dose of Organ, Average: Pancreas [3]: 1.63E-02 mGy/MBq
- Estimated Absorbed Dose of Organ, Average: Red Marrow [3]: 1.37E-02 mGy/MBq
- Estimated Absorbed Dose of Organ, Average: Skin [3]: 1.06E-02 mGy/MBq
- Estimated Absorbed Dose of Organ, Average: Small Intestine [3]: 1.83E-02 mGy/MBq
- Estimated Absorbed Dose of Organ, Average: Spleen [3]: 1.51E-02 mGy/MBq
- Estimated Absorbed Dose of Organ, Average: Stomach Wall [3]: 1.57E-02 mGy/MBq
- Estimated Absorbed Dose of Organ, Average: Thymus [3]: 1.48E-02 mGy/MBq
- Estimated Absorbed Dose of Organ, Average: Thyroid [3]: 1.27E-02 mGy/MBq
- Estimated Absorbed Dose of Organ, Average: Total Body [3]: 1.46E-02 mGy/MBq
- Estimated Absorbed Dose of Organ, Average: ULI Wall [3]: 1.75E-02 mGy/MBq
- Estimated Absorbed Dose of Organ, Average: Urinary Bladder Wall [3]: 1.18E-01 ‡ mGy/MBq
- Estimated Absorbed Dose of Organ, Average: Uterus [3]: 2.28E-02 mGy/MBq
- Effective Dose [4]: 7.95E-02 mSv/MBq
- Estimated Absorbed Dose of Organ, Adrenals [4]: 1.20E-02 mGy/MBq
- Estimated Absorbed Dose of Organ, Brain [4]: 6.80E-03 mGy/MBq
- Estimated Absorbed Dose of Organ, Breasts [4]: 7.63E-03 mGy/MBq
- Estimated Absorbed Dose of Organ, Gallbladder Wall [4]: 1.27E-02 mGy/MBq
- Estimated Absorbed Dose of Organ, Heart Wall [4]: 3.36E-02 mGy/MBq
- Estimated Absorbed Dose of Organ, Kidneys [4]: 3.95E-02 mGy/MBq
- Estimated Absorbed Dose of Organ, LLI Wall [4]: 2.13E-01 ‡ mGy/MBq
- Estimated Absorbed Dose of Organ, Liver [4]: 1.20E-02 mGy/MBq
- Estimated Absorbed Dose of Organ, Lungs [4]: 8.85E-03 mGy/MBq
- Estimated Absorbed Dose of Organ, Muscle [4]: 1.42E-02 mGy/MBq
- Estimated Absorbed Dose of Organ, Osteogenic Cells [4]: 1.64E-02 mGy/MBq
- Estimated Absorbed Dose of Organ, Ovaries [4]: 4.21E-02 mGy/MBq
- Estimated Absorbed Dose of Organ, Pancreas [4]: 1.23E-02 mGy/MBq
- Estimated Absorbed Dose of Organ, Red Marrow [4]: 1.35E-02 mGy/MBq
- Estimated Absorbed Dose of Organ, Skin [4]: 8.59E-03 mGy/MBq
- Estimated Absorbed Dose of Organ, Small Intestine [4]: 2.39E-02 mGy/MBq
- Estimated Absorbed Dose of Organ, Spleen [4]: 1.16E-02 mGy/MBq
- Estimated Absorbed Dose of Organ, Stomach Wall [4]: 1.21E-02 mGy/MBq
- Estimated Absorbed Dose of Organ, Thymus [4]: 9.63E-03 mGy/MBq
- Estimated Absorbed Dose of Organ, Thyroid [4]: 8.07E-03 mGy/MBq
- Estimated Absorbed Dose of Organ, ULI Wall [4]: 1.93E-02 mGy/MBq
- Estimated Absorbed Dose of Organ, Urinary Bladder Wall [4]: 7.75E-01 † mGy/MBq
- Estimated Absorbed Dose of Organ, Uterus [4]: 5.40E-02 § mGy/MBq
- Estimated Absorbed Dose, Total Body [4]: 1.49E-02 mGy/MBq
